Source: ChEMBL document CHEMBL5726283, “Cycloalkyl nitrile pyrazolo pyridones as Janus kinase inhibitors” (2017)

Key:
[1] = target: Tyrosine-protein kinase JAK1 (Homo sapiens, UniProt P23458); assay: Biochemical HTRF Assay Protocol: The ability of compounds to inhibit the activity of JAK1, JAK2, JAK3, and Tyk2 was measured using a recombinant purified GST-tagged catalytic domain for each enzyme (Invitrogen JAK1 #M4290, JAK2 #M4290, JAK3 #M4290, Tyk2 #M4290) in an HTRF format biochemical assay. The reactions employed a common peptide substrate, LCB-[…]-NH2 (in-house). The basic assay protocol is as follows: First, 250 nL of diluted compounds in DMSO were dispensed into the wells of a dry 384-well Black plate (Greiner #781076) using a Labcyte Echo 555 acoustic dispenser. Subsequent reagent additions employed an Agilent Bravo. Next, 18 μL of 1.11× enzyme and 1.11× substrate in 1× assay buffer (Invitrogen kinase buffer #PV3189, 2 mM DTT, 0.05% BSA) were added to the wells and shaken and then preincubated for 30 minutes at room temperature to allow compound binding to equilibrate. After equilibration, 2 μL of 10×ATP in 1× assay buffer was added to initiate the kinase reaction and the plates were shaken and then incubated at room temperature for 120 minutes. At the end of the incubation, 20 μL of 2× stop buffer (streptavidin-Dylight 650 (Thermo #84547B/100 mL), Eu-tagged pY20 antibody (Perkin Elmer #AD0067), EDTA, HEPES, and Triton) was added to quench the reaction. Plates were shaken and centrifuged and then incubated 60 minutes at room temperature and then read on a Perkin Elmer Envision (λex=337 nm, λem=665 and 615 nm, TRF delay time=20 μs). HTRF signal=10,000*665 nm reading/615 nm reading. After normalization to untreated controls, the percent inhibition of the HTRF signal at each compound concentration was calculated.
[2] = target: Tyrosine-protein kinase JAK2 (Homo sapiens, UniProt O60674); assay: Biochemical HTRF Assay Protocol: The ability of compounds to inhibit the activity of JAK1, JAK2, JAK3, and Tyk2 was measured using a recombinant purified GST-tagged catalytic domain for each enzyme (Invitrogen JAK1 #M4290, JAK2 #M4290, JAK3 #M4290, Tyk2 #M4290) in an HTRF format biochemical assay. […] Subsequent reagent additions employed an Agilent Bravo. […] After equilibration, 2 μL of 10×ATP in 1× assay buffer was added to initiate the kinase reaction and the plates were shaken and then incubated at room temperature for 120 minutes. […] After normalization to untreated controls, the percent inhibition of the HTRF signal at each compound concentration was calculated.
Tyrosine-protein kinase JAK2, sequence (O60674 whole entry, the tested form may be a part): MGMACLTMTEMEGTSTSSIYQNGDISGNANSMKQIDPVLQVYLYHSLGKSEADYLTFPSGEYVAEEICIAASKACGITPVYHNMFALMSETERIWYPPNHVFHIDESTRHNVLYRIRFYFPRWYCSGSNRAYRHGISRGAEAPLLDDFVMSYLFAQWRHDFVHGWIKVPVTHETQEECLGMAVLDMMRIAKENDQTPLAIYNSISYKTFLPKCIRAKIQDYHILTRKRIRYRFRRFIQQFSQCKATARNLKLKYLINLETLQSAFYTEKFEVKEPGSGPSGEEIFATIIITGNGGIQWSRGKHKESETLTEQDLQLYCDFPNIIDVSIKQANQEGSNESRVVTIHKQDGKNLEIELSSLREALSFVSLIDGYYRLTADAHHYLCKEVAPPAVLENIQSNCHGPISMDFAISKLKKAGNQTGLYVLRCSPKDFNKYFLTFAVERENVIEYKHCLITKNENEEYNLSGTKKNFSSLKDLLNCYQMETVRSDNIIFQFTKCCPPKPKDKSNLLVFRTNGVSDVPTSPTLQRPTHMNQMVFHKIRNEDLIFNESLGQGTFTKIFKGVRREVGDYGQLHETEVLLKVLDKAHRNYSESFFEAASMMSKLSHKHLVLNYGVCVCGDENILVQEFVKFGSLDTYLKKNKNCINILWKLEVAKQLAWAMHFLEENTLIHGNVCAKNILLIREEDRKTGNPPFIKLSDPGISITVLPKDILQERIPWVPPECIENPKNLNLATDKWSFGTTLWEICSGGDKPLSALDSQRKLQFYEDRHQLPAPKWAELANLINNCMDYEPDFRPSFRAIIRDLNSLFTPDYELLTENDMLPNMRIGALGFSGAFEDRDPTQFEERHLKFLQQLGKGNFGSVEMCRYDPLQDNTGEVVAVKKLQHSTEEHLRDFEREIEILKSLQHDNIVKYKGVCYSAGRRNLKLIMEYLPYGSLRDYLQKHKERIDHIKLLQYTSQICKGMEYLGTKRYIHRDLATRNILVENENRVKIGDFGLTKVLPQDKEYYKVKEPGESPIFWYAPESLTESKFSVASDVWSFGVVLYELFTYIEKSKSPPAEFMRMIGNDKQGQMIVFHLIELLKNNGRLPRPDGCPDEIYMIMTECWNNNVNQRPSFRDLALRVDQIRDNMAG

Tyrosine-protein kinase JAK1, sequence (P23458 whole entry, the tested form may be a part): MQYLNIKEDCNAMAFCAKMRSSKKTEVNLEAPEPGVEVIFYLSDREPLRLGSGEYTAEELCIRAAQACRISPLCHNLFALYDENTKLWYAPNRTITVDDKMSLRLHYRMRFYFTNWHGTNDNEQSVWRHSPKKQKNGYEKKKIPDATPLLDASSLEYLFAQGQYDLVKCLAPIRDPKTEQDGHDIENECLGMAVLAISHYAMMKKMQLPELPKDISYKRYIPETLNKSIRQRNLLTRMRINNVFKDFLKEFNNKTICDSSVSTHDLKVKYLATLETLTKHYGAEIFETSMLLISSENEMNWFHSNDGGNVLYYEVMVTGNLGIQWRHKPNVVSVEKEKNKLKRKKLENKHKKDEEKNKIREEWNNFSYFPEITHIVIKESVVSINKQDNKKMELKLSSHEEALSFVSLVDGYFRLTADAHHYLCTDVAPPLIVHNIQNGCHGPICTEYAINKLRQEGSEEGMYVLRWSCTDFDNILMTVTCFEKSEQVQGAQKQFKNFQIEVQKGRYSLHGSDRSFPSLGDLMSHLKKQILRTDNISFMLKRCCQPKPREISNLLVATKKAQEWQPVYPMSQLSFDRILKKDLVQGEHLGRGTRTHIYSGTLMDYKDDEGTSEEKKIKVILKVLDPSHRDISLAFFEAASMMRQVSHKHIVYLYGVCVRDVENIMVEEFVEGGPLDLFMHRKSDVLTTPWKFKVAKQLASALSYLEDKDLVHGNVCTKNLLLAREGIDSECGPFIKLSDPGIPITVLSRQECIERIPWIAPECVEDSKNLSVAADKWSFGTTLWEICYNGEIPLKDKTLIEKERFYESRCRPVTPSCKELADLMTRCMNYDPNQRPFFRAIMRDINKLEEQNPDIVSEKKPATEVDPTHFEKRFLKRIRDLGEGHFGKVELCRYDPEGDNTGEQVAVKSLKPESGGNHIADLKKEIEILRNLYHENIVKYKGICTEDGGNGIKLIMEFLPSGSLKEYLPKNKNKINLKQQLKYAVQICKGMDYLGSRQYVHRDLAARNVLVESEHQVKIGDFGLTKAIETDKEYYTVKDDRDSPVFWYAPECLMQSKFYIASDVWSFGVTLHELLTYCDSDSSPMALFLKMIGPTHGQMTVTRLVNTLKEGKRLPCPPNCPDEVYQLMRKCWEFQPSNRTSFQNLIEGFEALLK

SMILES | IC50 [1] [pM] | IC50 [2] [pM]
Cc1cc(Nc2nn([C@H]3CCCC[C@@H]3C#N)c3cc[nH]c(=O)c23)ccc1C(=O)N1CCC(F)(F)CC1 | 320 | 370
CS(=O)(=O)c1ccc(Nc2nn([C@@H]3CCC[C@H]3C#N)c3cc[nH]c(=O)c23)cc1 | 4700 | 
CN(C)S(=O)(=O)c1ccc(Nc2nn([C@H]3CCC[C@@H]3C#N)c3cc[nH]c(=O)c23)cc1 | 110 | 300
N#C[C@H]1C[C@H](O)CC[C@@H]1n1nc(Nc2ccc(C(F)(F)F)cc2)c2c(=O)[nH]ccc21 | 480 | 
